#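 Compound exposure: 48 hours, 5 concentrations, 96-well plates. Abbreviation: GI50, concentration required for 50% inhibition of growth.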 Active and inactive are the calls of the source. Rule as the data show it: active = GI50 up to about 1.1 µM and inactive = higher.
# Assays:
# Test in all cases: NCI anticancer screen, dose series, 48 h
# NCI-H23 = system: NCI-H23
# Hs-578T = system: Hs-578T
# NCI-H460 = system: NCI-H460
# Malme-3M = system: Malme-3M
# ACHN = system: ACHN
# HCT-116 = system: HCT-116
# KM12 = system: KM12
# OVCAR-8 = system: OVCAR-8
# CAKI-1 = system: CAKI-1
# MDA-MB-435 = system: MDA-MB-435
# A498 = system: A498
# M14 = system: M14
# PC-3 = system: PC-3
# UO-31 = system: UO-31
# SK-OV-3 = system: SK-OV-3
# OVCAR-5 = system: OVCAR-5
# HOP-62 = system: HOP-62
# SF-295 = system: SF-295
# SNB-19 = system: SNB-19
# 786-0 = system: 786-0
# SF-268 = system: SF-268
# SK-MEL-2 = system: SK-MEL-2
# LOX IMVI = system: LOX IMVI
# COLO 205 = system: COLO 205
# HT-29 = system: HT-29
# SW-620 = system: SW-620
# MDA-N = system: MDA-N
# RXF 393 = system: RXF 393
# HOP-92 = system: HOP-92
# SF-539 = system: SF-539
# HCT-15 = system: HCT-15
# SK-MEL-28 = system: SK-MEL-28
# NCI/ADR-RES = system: NCI/ADR-RES
# RPMI-8226 = system: RPMI-8226
# SK-MEL-5 = system: SK-MEL-5
# SR = system: SR
# OVCAR-4 = system: OVCAR-4
# MCF7 = system: MCF7
# UACC-62 = system: UACC-62
# HL-60 = system: HL-60
# NCI-H522 = system: NCI-H522
# NCI-H226 = system: NCI-H226
# IGROV-1 = system: IGROV-1
# U-251 = system: U-251
# A549 = system: A549
# BT-549 = system: BT-549
# T47D = system: T47D
# OVCAR-3 = system: OVCAR-3
# TK-10 = system: TK-10
# DU-145 = system: DU-145
# SN12C = system: SN12C
# MDA-MB-231 = system: MDA-MB-231
# K562 = system: K562
# MOLT-4 = system: MOLT-4
# UACC-257 = system: UACC-257
# EKVX = system: EKVX
# SNB-75 = system: SNB-75
# HCC 2998 = system: HCC 2998
# CCRF-CEM = system: CCRF-CEM
structure (smiles),measurement,setting,value
CN1CCc2nc(N)nc(-c3nc(N)nc4c3CN(C)CC4)c2C1,GI50,NCI-H23,> 100 µM (inactive)
same,GI50,Hs-578T,> 100 µM (inactive)
same,GI50,NCI-H460,> 100 µM (inactive)
same,GI50,Malme-3M,> 100 µM (inactive)
same,GI50,ACHN,> 100 µM (inactive)
same,GI50,HCT-116,> 100 µM (inactive)
same,GI50,KM12,> 100 µM (inactive)
same,GI50,OVCAR-8,> 100 µM (inactive)
same,GI50,CAKI-1,> 100 µM (inactive)
same,GI50,MDA-MB-435,> 100 µM (inactive)
same,GI50,A498,> 100 µM (inactive)
same,GI50,M14,> 100 µM (inactive)
same,GI50,PC-3,> 100 µM (inactive)
same,GI50,UO-31,> 100 µM (inactive)
same,GI50,SK-OV-3,> 100 µM (inactive)
same,GI50,OVCAR-5,> 100 µM (inactive)
same,GI50,HOP-62,> 100 µM (inactive)
same,GI50,SF-295,> 100 µM (inactive)
same,GI50,SNB-19,> 100 µM (inactive)
same,GI50,786-0,> 100 µM (inactive)
same,GI50,SF-268,> 100 µM (inactive)
same,GI50,SK-MEL-2,> 100 µM (inactive)
same,GI50,LOX IMVI,> 100 µM (inactive)
same,GI50,COLO 205,> 100 µM (inactive)
same,GI50,HT-29,> 100 µM (inactive)
same,GI50,SW-620,> 100 µM (inactive)
same,GI50,MDA-N,> 100 µM (inactive)
same,GI50,RXF 393,> 100 µM (inactive)
same,GI50,HOP-92,> 100 µM (inactive)
same,GI50,SF-539,> 100 µM (inactive)
same,GI50,HCT-15,> 100 µM
same,GI50,SK-MEL-28,> 100 µM (inactive)
same,GI50,NCI/ADR-RES,> 100 µM (inactive)
same,GI50,RPMI-8226,> 100 µM (inactive)
same,GI50,SK-MEL-5,> 100 µM (inactive)
same,GI50,SR,33 µM (inactive)
same,GI50,OVCAR-4,> 100 µM (inactive)
same,GI50,MCF7,> 100 µM (inactive)
same,GI50,UACC-62,> 100 µM (inactive)
same,GI50,HL-60,> 100 µM (inactive)
same,GI50,NCI-H522,> 100 µM (inactive)
same,GI50,NCI-H226,> 100 µM (inactive)
same,GI50,IGROV-1,> 100 µM (inactive)
same,GI50,U-251,> 100 µM (inactive)
same,GI50,A549,> 100 µM (inactive)
same,GI50,BT-549,> 100 µM (inactive)
same,GI50,T47D,> 100 µM (inactive)
same,GI50,OVCAR-3,> 100 µM (inactive)
same,GI50,TK-10,> 100 µM (inactive)
same,GI50,DU-145,> 100 µM (inactive)
same,GI50,SN12C,> 100 µM (inactive)
same,GI50,MDA-MB-231,> 100 µM (inactive)
same,GI50,K562,75.9 µM (inactive)
same,GI50,MOLT-4,> 100 µM (inactive)
same,GI50,UACC-257,> 100 µM (inactive)
same,GI50,EKVX,> 100 µM (inactive)
Clc1ccc(CCN(CCc2ccc(Cl)c(Cl)c2)CCN2CCCC2)cc1Cl,GI50,NCI-H23,1.82 µM (inactive)
same,GI50,Hs-578T,1.9 µM (inactive)
same,GI50,NCI-H460,1.86 µM (inactive)
same,GI50,Malme-3M,1.78 µM (inactive)
same,GI50,ACHN,1.74 µM (inactive)
same,GI50,HCT-116,1.69 µM (inactive)
same,GI50,KM12,1.67 µM (inactive)
same,GI50,OVCAR-8,1.68 µM (inactive)
same,GI50,CAKI-1,1.64 µM (inactive)
same,GI50,MDA-MB-435,1.44 µM (inactive)
same,GI50,A498,1.77 µM (inactive)
same,GI50,M14,1.67 µM (inactive)
same,GI50,PC-3,1.57 µM (inactive)
same,GI50,UO-31,1.64 µM (inactive)
same,GI50,SK-OV-3,1.78 µM (inactive)
same,GI50,OVCAR-5,1.6 µM (inactive)
same,GI50,HOP-62,1.67 µM (inactive)
same,GI50,SF-295,1.78 µM (inactive)
same,GI50,SNB-19,1.82 µM (inactive)
same,GI50,786-0,1.76 µM (inactive)
same,GI50,SF-268,1.73 µM (inactive)
same,GI50,SK-MEL-2,1.67 µM (inactive)
same,GI50,LOX IMVI,1.6 µM (inactive)
same,GI50,SNB-75,2.23 µM (inactive)
same,GI50,COLO 205,1.89 µM (inactive)
same,GI50,HT-29,1.68 µM (inactive)
same,GI50,SW-620,1.72 µM (inactive)
same,GI50,MDA-N,1.87 µM (inactive)
same,GI50,RXF 393,1.72 µM (inactive)
same,GI50,SF-539,1.8 µM (inactive)
same,GI50,HCT-15,1.79 µM
same,GI50,HCC 2998,1.68 µM (inactive)
same,GI50,SK-MEL-28,1.77 µM (inactive)
same,GI50,NCI/ADR-RES,1.75 µM (inactive)
same,GI50,RPMI-8226,2.16 µM (inactive)
same,GI50,SK-MEL-5,1.81 µM (inactive)
same,GI50,SR,2.01 µM (inactive)
same,GI50,OVCAR-4,1.85 µM (inactive)
same,GI50,MCF7,1.51 µM (inactive)
same,GI50,UACC-62,1.63 µM (inactive)
same,GI50,HL-60,1.39 µM (inactive)
same,GI50,NCI-H522,1.64 µM (inactive)
same,GI50,CCRF-CEM,1.15 µM (inactive)
same,GI50,NCI-H226,1.67 µM (inactive)
same,GI50,IGROV-1,1.58 µM (inactive)
same,GI50,U-251,1.6 µM (inactive)
same,GI50,A549,1.74 µM (inactive)
same,GI50,BT-549,2.04 µM (inactive)
same,GI50,T47D,3.27 µM (inactive)
same,GI50,OVCAR-3,1.73 µM (inactive)
same,GI50,TK-10,1.78 µM (inactive)
same,GI50,DU-145,2.01 µM (inactive)
same,GI50,SN12C,1.87 µM (inactive)
same,GI50,MDA-MB-231,1.56 µM (inactive)
same,GI50,K562,2.25 µM (inactive)
same,GI50,MOLT-4,1.79 µM (inactive)
same,GI50,UACC-257,1.78 µM (inactive)
same,GI50,EKVX,2.05 µM (inactive)

# Source: ChEMBL document CHEMBL1201862, “PubChem BioAssay data set” (2004)
